From patent US20250282736A1, “SMALL MOLECULE MODULATORS OF HUMAN PREGNANE X RECEPTOR” (ST. JUDE CHILDREN'S RESEARCH HOSPITAL, priority 2022, published 2025) come the findings set out here.

The target in series [1] is T1, hPXR (Homo sapiens (Human), UniProt O75469). Description: cell-based hPXR inverse agonistic assay. The settings on record: for inhibition at 10 µM: read-out: Inverse agonist (% inhibition at 10 μM).
Series [2] concerns the target T1, hPXR. Briefly: cell-based hPXR antagonistic assay. To be noted: for inhibition at 10 µM: read-out: Antagonist (% inhibition at 10 μM).
The target of series [3] is T1, hPXR. Description: cell-based hPXR agonistic assay. The settings on record: for Agonist (% activation at 10 μM): rifampicin at 10 μM as 100% activation, DMSO (0.3%) as 0%.
Series [4] deals with T1, hPXR. Briefly: hPXR binding assay. To be noted: for inhibition at 10 µM: read-out: Binding (% inhibition at 10 μM).
Where [5] appears, read: read-out: Binding (IC50/μM), hPXR binding assay.

As usually defined, the inhibition is the drop in the measured response relative to a control, in per cent.

Read-outs that look alike come from different tables or passages of the source.

T1 sequence (O75469 whole entry): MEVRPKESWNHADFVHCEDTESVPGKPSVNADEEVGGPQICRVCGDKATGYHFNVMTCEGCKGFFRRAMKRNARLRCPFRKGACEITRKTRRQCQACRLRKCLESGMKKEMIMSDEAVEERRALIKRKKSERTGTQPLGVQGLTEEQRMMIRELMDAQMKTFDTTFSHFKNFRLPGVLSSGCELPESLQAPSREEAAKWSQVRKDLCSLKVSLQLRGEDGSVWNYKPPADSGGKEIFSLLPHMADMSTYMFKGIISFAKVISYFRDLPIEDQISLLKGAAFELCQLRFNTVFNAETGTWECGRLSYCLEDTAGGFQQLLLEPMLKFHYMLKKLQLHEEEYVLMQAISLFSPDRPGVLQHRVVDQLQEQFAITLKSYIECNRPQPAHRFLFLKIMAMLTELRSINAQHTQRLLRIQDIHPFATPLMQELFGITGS

As for `COc1ccc(OC)c(-n2nnc(C(=O)Nc3ccc(C)cc3)c2C)c1` [A2], the IC50 is above 30 µM in series [1], above 30 µM in series [2] and 14 ± 4.79 µM in series [4] (setting [5]). Besides, the EC50 in series [3] was determined as 2.44 ± 1.02 µM. Also, the “Agonist (% activation at 10 μM)” value in series [3] is “(32 ± 7)%”. Moreover, the inhibition at 10 µM in series [4] is 22%.
With `COc1ccc(OC)c(-n2nnc(C(=O)Nc3cccc(C)c3)c2C)c1` [A3], the figures for the IC50 in series [1], in series [2] and in series [4] (setting [5]) were above 30 µM, above 30 µM and 10.9 ± 0.4 µM, respectively. Besides, in series [3], the “Agonist (% activation at 10 μM)” value is recorded as “(30 ± 3)%”. The EC50 in series [3] (read-out: Agonist (EC50/μM), cell-based hPXR agonistic assay) came out at 3.51 ± 0.86 µM. Moreover, the inhibition at 10 µM in series [4] turned out to be 52%.
In the case of `COc1ccc(OC)c(-n2nnc(C(=O)Nc3ccnc(C(C)(C)C)c3)c2C)c1` [A7], the values for the IC50 in series [1], in series [2] and in series [4] were 10.3 ± 3.25 µM, above 30 µM and above 30 µM, respectively. Further, in series [1], the inhibition at 10 µM was 80%. In series [3], this compound gave an EC50 above 30 µM.
`CCc1cccc(NC(=O)c2nnn(-c3cc(OC)ccc3OC)c2C)c1` [A8]: the figures for the IC50 in series [1], in series [2] and in series [4] (setting [5]) were above 30 µM, above 30 µM and 16.1 ± 0.54 µM, respectively. The compound further displayed an EC50 in series [3] above 30 µM. Moreover, the inhibition at 10 µM in series [4] stood at 49%.
With `COc1ccc(OC)c(-n2nnc(C(=O)Nc3cccc(N(C)C)c3)c2C)c1` [A10], the IC50 is above 30 µM in series [1], above 30 µM in series [2] and 10.5 ± 2.1 µM in series [4] (setting [5]). In series [3], the EC50 is above 30 µM. The inhibition at 10 µM in series [4] came out at 49%.
Turning to `COc1ccc(OC)c(-n2nnc(C(=O)Nc3cccc(-n4cccc4)c3)c2C)c1` [A11], the IC50 in series [1] was above 30 µM; in series [2] it was above 30 µM; in series [4] (setting [5]), 1.41 ± 0.69 µM. In series [3], this compound registered an EC50 above 30 µM. The inhibition at 10 µM in series [4] was determined as 24%.
Turning to `COc1ccc(OC)c(-n2nnc(C(=O)Nc3cccc(N4CCCCC4)c3)c2C)c1` [A12], the figures for the inhibition at 10 µM in series [1] and in series [4] were 36% and 50%, respectively. The IC50 is 25.8 ± 6.27 µM in series [1] (read-out: Inverse agonist (IC50/μM), cell-based hPXR inverse agonistic assay); above 30 µM in series [2]; 9.37 ± 3.52 µM in series [4] (setting [5]). Moreover, in series [3], the EC50 was above 30 µM.
Regarding `COc1ccc(OC)c(-n2nnc(C(=O)Nc3cccc(N4CCOCC4)c3)c2C)c1` [A14], the IC50 in series [1], in series [2] and in series [4] was above 30 µM each time. The compound further yielded an EC50 in series [3] above 30 µM.
Regarding `COc1ccc(OC)c(-n2nnc(C(=O)Nc3cccc(N4CCN(C)CC4)c3)c2C)c1` [A15], the IC50 in series [1], in series [2] and in series [4] was above 30 µM each time. The EC50 in series [3] was above 30 µM.
In the case of `COc1ccc(OC)c(-n2nnc(C(=O)Nc3ccc(N4CCN(C)CC4)cc3)c2C)c1` [A16], the IC50 in series [1], in series [2] and in series [4] was above 30 µM each time. In series [3], this compound showed an EC50 above 30 µM.
Take `COc1ccc(OC)c(-n2nnc(C(=O)Nc3ccc(CN4CCN(C)CC4)cc3)c2C)c1` [A17]: the IC50 in series [1], in series [2] and in series [4] was above 30 µM in each case. For the same compound, the EC50 in series [3] was above 30 µM.
For the compound `CCOc1cc(NC(=O)c2nnn(-c3cc(OC)ccc3OC)c2C)nc(OCC)n1` [A18], the figures for the IC50 in series [1], in series [2] and in series [4] (setting [5]) were above 30 µM, above 30 µM and 12.6 ± 3.09 µM, respectively. Further, the EC50 in series [3] is above 30 µM. Besides, the inhibition at 10 µM in series [4] amounted to 36%.
For `COc1ccc(OC)c(-n2nnc(C(=O)Nc3cc(-n4cnc(C)c4)cc(C(F)(F)F)c3)c2C)c1` [A20], the IC50 in series [1], in series [2] and in series [4] was above 30 µM in each case. The compound also registered an EC50 in series [3] above 30 µM.
`COc1ccc(OC)c(-n2nnc(C(=O)Nc3ccc(CN4CCN(C)CC4)c(C(F)(F)F)c3)c2C)c1` [A21]: the IC50 in series [1], in series [2] and in series [4] was above 30 µM in each case. Further, in series [3], the EC50 was above 30 µM.
For `COC(=O)c1ccc(NC(=O)c2nnn(-c3cc(OC)ccc3OC)c2C)cc1N1CCCC1` [A22], the IC50 in series [1] was 10.6 ± 8.63 µM; in series [2], above 30 µM; in series [4], above 30 µM. Also, the inhibition at 10 µM in series [1] worked out at 129%. Moreover, the EC50 in series [3] is above 30 µM.
As to `COc1ccc(OC)c(-n2nnc(C(=O)Nc3ccc4c(c3)Nc3ccccc3CC4)c2C)c1` [A23], the IC50 in series [1] was above 30 µM; in series [2] it was 13.4 ± 0.12 µM; in series [4], above 30 µM. Besides, the inhibition at 10 µM in series [2] came out at 23%. The EC50 in series [3] was above 30 µM.
For `COc1ccc(OC)c(-n2nnc(C(=O)Nc3cc(C)ccc3OC)c2C)c1` [A25], the IC50 was determined as 20.6 ± 0.42 µM in series [1], 12 ± 2 µM in series [2] and 1.36 ± 0.23 µM in series [4] (setting [5]). Also, the inhibition at 10 µM in series [1] was found to be 53%; in series [2], 70%; in series [4], 73%. For the same compound, the EC50 in series [3] was above 30 µM.
Consider `COc1ccc(OC)c(-n2nnc(C(=O)Nc3cc(C(C)(C)C)ccc3O)c2C)c1` [B2, N-(5-(tert-butyl)-2-hydroxyphenyl)-1-(2,5-dimethoxyphenyl)-5-methyl-1H-1,2,3-triazole-4-carboxamide], for which the figures for the IC50 in series [1], in series [2] and in series [4] (setting [5]) were above 30 µM, above 30 µM and 2.33 ± 0.43 µM, respectively. The EC50 in series [3] was above 30 µM. Moreover, the inhibition at 10 µM in series [4] was 84%.
In the case of `COc1ccc(OC)c(-n2nnc(C(=O)Nc3cc(C(C)(C)C)ccc3OC(=O)c3nnn(-c4cc(OC)ccc4OC)c3C)c2C)c1` [B3, 4-(tert-butyl)-2-(1-(2,5-dimethoxyphenyl)-5-methyl-1H-1,2,3-triazole-4-carboxamido)phenyl 1-(2,5-dimethoxyphenyl)-5-methyl-1H-1,2,3-triazole-4-carboxylate], the IC50 in series [1], in series [2] and in series [4] was above 30 µM each time. Moreover, the EC50 in series [3] is 0.59 µM. For the same compound, in series [3], the “Agonist (% activation at 10 μM)” value is recorded as “(55 ± 6)%”.
Consider `COc1ccc(OC)c(-n2nnc(C(=O)Nc3cc(C(C)(C)C)ccc3OCCOCCOCCOCCO)c2C)c1` [B10], for which the IC50 in series [1] worked out at 0.43 ± 0.14 µM; in series [2] it was 1.92 ± 0.23 µM; in series [4] (setting [5]) it was 2.34 ± 0.57 µM. The figures for the inhibition at 10 µM in series [1], in series [2] and in series [4] were 95%, 102% and 62%, respectively. Besides, the EC50 in series [3] was above 30 µM.
Turning to `COc1ccc(OC)c(-n2nnc(C(=O)Nc3cc(C(C)(C)C)ccc3OC(C)C)c2C)c1` [B12], the results for the IC50 in series [1], in series [2] and in series [4] (setting [5]) were 0.0074 µM, 0.049 ± 0.01 µM and 0.021 ± 0.005 µM, respectively. Besides, the values for the inhibition at 10 µM in series [1], in series [2] and in series [4] were 119%, 107% and 88%, respectively. For the same compound, the EC50 in series [3] was above 30 µM.
With `COc1ccc(OC)c(-n2nnc(C(=O)Nc3cc(C(C)(C)C)ccc3OCCCCCCCCI)c2C)c1` [B19], the IC50 in series [1] was determined as 0.43 ± 0.14 µM; in series [2] it was 2.48 µM; in series [4] (setting [5]), 0.5 ± 0.12 µM. The inhibition at 10 µM in series [1] is 95%; in series [2], 86%; in series [4] it was 68%. The same compound displayed an EC50 in series [3] above 30 µM.
On to `COc1ccc(OC)c(-n2nnc(C(=O)Nc3cc(C(C)(C)C)ccc3OCCCCCCCCOc3ccc(C(C)(C)C)cc3NC(=O)c3nnn(-c4cc(OC)ccc4OC)c3C)c2C)c1` [B20], for which the IC50 in series [1], in series [2] and in series [4] was above 30 µM throughout. In series [3], this compound displayed an EC50 above 30 µM.
As to `COc1ccc(OC)c(-n2nnc(C(=O)Nc3cc(C(C)(C)C)ccc3OCCCCN3CCN(C)CC3)c2C)c1` [B22, N-(5-(tert-butyl)-2-(4-(4-methylpiperazin-1-yl)butoxy)phenyl)-1-(2,5-dimethoxyphenyl)-5-methyl-1H-1,2,3-triazole-4-carboxamide], the IC50 in series [1] is 3.08 ± 0.55 µM; in series [2], 6.09 ± 0.85 µM; in series [4] it was above 30 µM. In addition, the inhibition at 10 µM in series [1] is 168%; in series [2] it was 114%. In series [3], this compound yielded an EC50 above 30 µM.
For the compound `COc1ccc(OC)c(-n2nnc(C(=O)Nc3cc(C(C)(C)C)ccc3OCCOCCOCCOCCOCCOCCOc3ccc(C(C)(C)C)cc3NC(=O)c3nnn(-c4cc(OC)ccc4OC)c3C)c2C)c1` [B23, N,N′-((3,6,9,12,15-pentaoxaheptadecane-1,17-diylbis(oxy))bis(3-(tert-butyl)-6,1-phenylene))bis(1-(2,5-dimethoxyphenyl)-5-methyl-1H-1,2,3-triazole-4-carboxamide)], the results for the IC50 in series [1], in series [2] and in series [4] were 16.7 ± 3.34 µM, above 30 µM and above 30 µM, respectively. Also, the inhibition at 10 µM in series [1] worked out at 45%. In series [3], this compound returned an EC50 above 30 µM.
Regarding `COc1ccc(OC)c(-n2nnc(C(=O)Nc3cc(C(C)(C)C)ccc3OCC(=O)OC(C)(C)C)c2C)c1` [B24, tert-butyl 2-(4-(tert-butyl)-2-(1-(2,5-dimethoxyphenyl)-5-methyl-1H-1,2,3-triazole-4-carboxamido)phenoxy)acetate], the IC50 was above 30 µM in series [1], above 30 µM in series [2] and 0.5 ± 0.2 µM in series [4] (setting [5]). In series [3], this compound showed an EC50 of 0.27 µM. In series [3], the “Agonist (% activation at 10 μM)” value is reported as “(77 ± 1)%”. Further, the inhibition at 10 µM in series [4] was determined as 74%.
`COc1ccc(OC)c(-n2nnc(C(=O)Nc3cc(C(C)(C)C)ccc3OCC(C)(C)C)c2C)c1` [B29]: the IC50 in series [1] turned out to be 0.026 µM; in series [2] it was 0.18 µM; in series [4] (setting [5]) it was 0.0177 ± 0.0031 µM. Also, the inhibition at 10 µM was found to be 100% in series [1], 99% in series [2] and 85% in series [4]. In addition, the EC50 in series [3] was above 30 µM.
